# Laboratory results taken from patent US9649324B2, “Use of tylvalosin as antiviral agent” (ECO ANIMAL HEALTH LIMITED, priority 2006, dated 2017).
# How the values were obtained:
# HRT-18 cells = assay: Intracellular accumulation of macrolides in HRT-18 cells; type: in vitro ADME, human; conditions: HRT-18 cells, 10 μg/mL antibiotic
# Protocol: HRT-18 cells, in 6 cm tissue cultures dishes, were incubated in the presence of 0.5, 5 or 50 μg/mL tylvalosin. After 4 h, two dishes for each tylvalosin concentration and two dishes without antibiotic were removed from the incubator. A sample of medium (about 1 mL) was removed, placed in a labelled Eppendorf tube and stored at −20° C. The rest of the medium was then removed. Each of the cell monolayers was washed twice in PBS, using approximately 5 mL for each wash. The plunger from a 2 mL plastic syringe was used to gently scrape off the cells. PBS (500 μL) was added to the dish and the cells gently removed into this medium, using a micropipette. The sample was then placed in an Eppendorf tube and centrifuged at 8000×g in a bench centrifuge (Biofuge pico, Heraeus instruments) for 13 sec. An obvious cell pellet formed. The supernatant was removed using a micropipette and the cell material was stored at −20° C. in a labelled Eppendorf tube. After approximately 24 h the remaining tissue culture dishes were removed from the incubator and treated as described above for the 4 h samples. All the samples, including the 4 h samples, were then stored at −70° C.
# HRT-18 cells were prepared as described above and used at passage 42. Stock solutions of antibiotics (either tylvalosin, tylosin or tilmicosin) were diluted in growth media and 10 μg/mL each antibiotic was added to the confluent cell monolayers. The cells were incubated at 37° C. in a 5% CO2 atmosphere for either 4 h or 24 h. The media and cells were harvested and tested for antibiotic, as described above.
# (§1) All the supernatant and cell samples were transported frozen (at approximately −20° C.) to York Bioanalytical Solutions (York, England) for analysis. Briefly, 0.25 g of buffer (RPMI medium containing 10% FCS) was weighed into a polypropylene tube. A 50 μL volume of the appropriate working solution was added to the quality control (QC) samples. Methanol (50 μL) was added to each blank sample used for preparation of calibration standards, recovery samples and reagent blanks. A 2.5 mL volume of 0.1 M phosphate buffer was added to each sample, vortex mixed for approximately 1 min and then centrifuged at 3220×g for 10 min at 4° C.
# (§2) For the liquid-liquid clean-up phase, an aliquot (100 μL) of the supernatant was transferred to a polypropylene tube. The pH was adjusted to pH 8-8.5 by the addition of 0.1 M NaOH, and vortex mixed. Ethyl acetate (5 mL) was added and after capping, the whole mixture was shaken for 10 min and then centrifuged at 3220×g for 10 min at 4° C.
# (§3) Ammonium acetate (20 mM; pH native)—formic acid, 1000:3, v/v (100 μL) was added to each well in a 2 mL polypropylene collection plate. An aliquot of the ethyl acetate mixture (100 μL) was transferred to the polypropylene collection plate and evaporated under nitrogen (40° C.) until the ethyl acetate was fully evaporated whilst the ammonium acetate remained. Methanol (100 μL) was added to each well, excluding the calibration standards.
# (§4) To each well containing a calibration standard, 100 μL of the appropriate calibration working solution was added. Samples were then vortex mixed for at least 10 min and submitted for liquid chromatography with tandem mass spectrometric analysis. The method stated was applicable to the samples of media (and the calibration standards and quality control samples).
# (§5) For the cells, the sample tubes were weighed, and 100 μL of acetonitrile was added. The samples were vortex mixed for 10 sec, then centrifuged at 10285×g at 4° C. for 5 min. The sample was transferred to a polypropylene tube. The original sample tube was washed with 0.1 M phosphate buffer (1 mL). This was transferred to the polypropylene tube. A second wash of 1 mL was made, then a final wash of 0.5 mL. The polypropylene tube was now at the same stage as the end of the liquid extraction, but with the cells present rather than media. This was then taken through the sample preparation as described above. […]
# Caco-2 cells = assay: Intracellular accumulation and trans-epithelial transport in polarised Caco-2 cells; type: in vitro ADME, human; conditions: Caco-2, 10 μg/mL, apical administration
# Protocol: Caco-2 cells were seeded at a density of 0.8×10^6 cells per well of a Transwell Clear filter 6 well plate, 0.4 μm pore size. The cells were incubated with 2 mL medium in both apical and basolateral chambers. This medium was replaced every 2 days for 10-14 days. Transepithelial resistance was measured using Millicell ERS apparatus (Millipore) at day 7, 10 and/or 14 in order to identify when the cells had become polarised. Readings of >1000 Ω were indicative of polarised cells. […]
# as §1, §2, §3, §4
# (§6) For the cells, the sample tubes were weighed, and 100 μL of acetonitrile was added. The samples were vortex mixed for 10 sec, then centrifuged at 10285×g at 4° C. for 5 min. The sample was transferred to a polypropylene tube. The original sample tube was washed with 0.1 M phosphate buffer (1 mL). This was transferred to the polypropylene tube. A second wash of 1 mL was made, then a final wash of 0.5 mL. The polypropylene tube was now at the same stage as the end of the liquid extraction, but with the cells present rather than media. This was then taken through the sample preparation as described above. The original sample tubes were allowed to dry (i.e. any remaining solvent evaporated off) and were then reweighed to determine the weight of cells in the sample, to allow the concentration per gram of cells to be determined.
# LLC-PK1 cells = assay: Intracellular accumulation in pig kidney epithelial cells; type: in vitro ADME; conditions: LLC-PK1, 10 μg/mL
# Protocol: LLC-PKI cells in 6 cm^2 plastic tissue culture dishes were incubated with 10 μg/mL of the different macrolides. Cells and medium were harvested as described above at 30, 75 and 120 min.
# as §1, §2, §3, §4, §6
# pig white blood cells = assay: Intracellular accumulation in pig white blood cells; type: in vitro ADME
# Protocol: (§7) Pig blood was collected in Heparin-coated BD vacutainers (6). 20 mL of blood and 30 mL of phosphate buffered saline (PBS) were mixed in a 50 mL conical centrifuge tube. This was repeated in order to obtain 3 such tubes. The mixtures were centrifuged for 10 min at 2050×g. The white blood cells, together with some red blood cells below, were harvested into a 50 mL conical centrifuge tube. PBS was added to about 50 mL. A 63% solution of Percoll was made as follows: 6.3 mL Percoll (Sigma), 1.0 mL 1.5 M NaCl, 2.7 mL H2O. 10 mL of 63% Percoll was added to each of two 50 mL conical centrifuge tubes. 25 mL of the resuspended white blood cells were carefully layered on top of the each of the Percoll solutions. A sharp interface was produced. The material was centrifuged at 3000×g for 10 min. […] The white blood cells were harvested in PBS (50 mL) and centrifuged at 500×g for 10 min. The cell pellet was resuspended in medium (Glasgow minimum essential medium containing penicillin and streptomycin). A viable cell count was made using trypan blue. The same method used for isolation of pig WBCs was used for the chicken WBCs, with the exception that heparin (100 I.U./mL) was prepared and mixed with an equal volume of chicken whole blood.
# Cells were incubated with 10 mg/mL of each antibiotic. All tubes were placed on a rotary mixing machine, at 37° C. Supernatant and cell samples were harvested at the times described in the figure legends. Duplicate samples were used for each antibiotic for each time point.
# as §1, §2, §3, §4, §5
# [1] = system: chicken white blood cells; assay: Intracellular accumulation in chicken white blood cells; type: in vitro ADME; conditions: chicken white blood cells, 10 μg/mL
# Protocol: as §7
# All tubes were placed on a rotary mixing machine, at 37° C. Supernatant and cell samples were harvested at the times described in the figure legends. Duplicate samples were used for each antibiotic for each time point.
# as §1, §2, §3, §4, §5
# PRRSV = conditions: has been shown; cited from earlier work
# [2] = system: VR2332 (US strain of PRRSV); assay: VR2332 (US strain of PRRSV) entry assay in MA104 cells (Example 10); conditions: 4 h pretreatment, moi 10, overnight
compound,measurement,setting,value
"CC[C@H]1OC(=O)C[C@@H](O)[C@H](C)[C@@H](O[C@@H]2O[C@H](C)[C@@H](O)[C@H](N(C)C)[C@H]2O)[C@@H](CCN2C[C@H](C)C[C@H](C)C2)C[C@@H](C)C(=O)/C=C/C(C)=C/[C@@H]1CO[C@@H]1O[C@H](C)[C@@H](O)[C@@H](OC)[C@H]1OC (single isomer, unassigned) [tilmicosin, reference compound]",average intracellular concentration,HRT-18 cells; 4 h,7.24 μg/mg cells
same,intracellular:extracellular ratio,HRT-18 cells; 4 h,1.32 fold
same,average intracellular concentration,HRT-18 cells; 24 h,32.45 μg/mg cells
same,intracellular:extracellular ratio,HRT-18 cells; 24 h,4.64 fold
same,average intracellular concentration,Caco-2 cells; 120 min,8.6 μg/mg cells
same,average intracellular concentration,Caco-2 cells; 240 min,16.05 μg/mg cells
same,basolateral chamber content as average % of the apical chamber value,Caco-2 cells; 240 min,1.08%
same,intracellular:extracellular ratio (fold concentration),Caco-2 cells; 240 min,2.5 fold
same,average intracellular concentration,LLC-PK1 cells; 75 min,4.98 μg/mg cells
same,intracellular:extracellular ratio,LLC-PK1 cells; 120 min,1.7
same,average intracellular concentration,pig white blood cells; 10 min,31.25 μg/mg cells
same,average intracellular:extracellular ratio (IC:EC),pig white blood cells; 10 min,4.33
same,average intracellular:extracellular ratio (IC:EC),"pig white blood cells; 10 min, listed as Tilmicosin",4
same,intracellular concentration,pig white blood cells; 20 min,36 μg/mg cells
same,average intracellular concentration,[1]; 15 min,37.1 μg/mg cells
same,intracellular concentration,[1]; 60 min,71.3 μg/mg cells
same,toxicity in cell culture assays of antiviral potency,cell culture,much more toxic than tylvalosin
same,effect on PRRSV,PRRSV,effective
same,inhibition of VR2332 infection,[2],partial inhibition
